Laboratory results: ChEMBL document CHEMBL3885881, “DrugMatrix”

Organism: Rattus norvegicus
Experiment: DrugMatrix - Regimen: Daily Repeat
Assay type: toxicity, organism-based, Sprague-Dawley
Set-up: regimen Daily Repeat, gender Male, age 6-8 weeks
Conditions: in vivo, po, route oral GAVAGE, vehicle 100 % WATER; for ABSOLUTE BASOPHIL / ABSOLUTE EOSINOPHIL / ABSOLUTE LYMPHOCYTE / ABSOLUTE MONOCYTE / ABSOLUTE SEGMENTED NEUTROPHIL / BASOPHIL / EOSINOPHIL / ERYTHROCYTE COUNT / HEMATOCRIT / HEMOGLOBIN / LEUKOCYTE COUNT / LYMPHOCYTE / MEAN CORPUSCULAR HEMOGLOBIN / MEAN CORPUSCULAR HEMOGLOBIN CONCENTRATION / MEAN CORPUSCULAR VOLUME / MONOCYTE / NEUTROPHIL / NUCLEATED RED BLOOD CELLS / PLATELET COUNT: tissue Blood; for ALANINE AMINOTRANSFERASE / ALBUMIN / ALKALINE PHOSPHATASE / ASPARTATE AMINOTRANSFERASE / BLOOD UREA NITROGEN / CARBON DIOXIDE / CHLORIDE / CHOLESTEROL / CREATINE PHOSPHOKINASE / CREATININE / GLUCOSE / LACTATE DEHYDROGENASE / LIPASE / PHOSPHORUS / SODIUM / TOTAL BILIRUBIN / TOTAL PROTEIN / URIC ACID: tissue Plasma
[1] = 0 mg/kg, 72 h, dose level Control, time 3 day
[2] = 0 mg/kg, 120 h, dose level Control, time 5 day
[3] = 100 mg/kg, 72 h, dose level Low, time 3 day

With `CCN(CC)C(=S)SSC(=S)N(CC)CC` the “ABSOLUTE BASOPHIL” value [1] was 0 CELLS/uL, the “ABSOLUTE EOSINOPHIL” value [1] was 58.83 CELLS/uL and the “ABSOLUTE LYMPHOCYTE” value [1] was 11823.5 CELLS/uL. For the same compound, the “ABSOLUTE MONOCYTE” value [1] was 169 CELLS/uL, the “ABSOLUTE SEGMENTED NEUTROPHIL” value [1] was 815.33 CELLS/uL and the BASOPHIL [1] was 0%. For the same compound, the EOSINOPHIL [1] was 0.5%, the “ERYTHROCYTE COUNT” value [1] was 5.52 x10E6/uL and the HEMATOCRIT [1] was 35.77%. For the same compound, the HEMOGLOBIN [1] was 14.28 G/DL, the “LEUKOCYTE COUNT” value [1] was 12.87 x10E3/uL and the LYMPHOCYTE [1] was 91.67%. The “MEAN CORPUSCULAR HEMOGLOBIN” value [1] was 25.92 pg, the “MEAN CORPUSCULAR HEMOGLOBIN CONCENTRATION” value [1] was 39.95 G/DL and the “MEAN CORPUSCULAR VOLUME” value [1] was 64.85 fL. For the same compound, the MONOCYTE [1] was 1.33%, the NEUTROPHIL [1] was 6.5% and the “NUCLEATED RED BLOOD CELLS” value [1] was 0 /100WBC. For the same compound, the “PLATELET COUNT” value [1] was 1246.17 x10E3/uL, the “ALANINE AMINOTRANSFERASE” value [1] was 66 u/L and the ALBUMIN [1] was 4.25 G/DL. The “ALKALINE PHOSPHATASE” value [1] was 416 u/L, the “ASPARTATE AMINOTRANSFERASE” value [1] was 106.17 u/L and the “BLOOD UREA NITROGEN” value [1] was 12.67 mg/dL. The “CARBON DIOXIDE” value [1] was 31.83 mmol/L, the CHLORIDE [1] was 102.5 MEQ/L and the CHOLESTEROL [1] was 69 mg/dL. The “CREATINE PHOSPHOKINASE” value [1] was 601.83 u/L, the CREATININE [1] was 0.18 mg/dL and the GLUCOSE [1] was 154.5 mg/dL. The “LACTATE DEHYDROGENASE” value [1] was 301.83 u/L, the LIPASE [1] was 11.17 u/L and the PHOSPHORUS [1] was 12.08 mg/dL. For the same compound, the SODIUM [1] was 145.2 MEQ/L, the “TOTAL BILIRUBIN” value [1] was 0.17 mg/dL and the “TOTAL PROTEIN” value [1] was 6.1 G/DL. The “URIC ACID” value [1] was 1.57 mg/dL, the “ABSOLUTE BASOPHIL” value [2] was 0 CELLS/uL and the “ABSOLUTE EOSINOPHIL” value [2] was 19.33 CELLS/uL. For the same compound, the “ABSOLUTE LYMPHOCYTE” value [2] was 12577.83 CELLS/uL, the “ABSOLUTE MONOCYTE” value [2] was 106.33 CELLS/uL and the “ABSOLUTE SEGMENTED NEUTROPHIL” value [2] was 896.5 CELLS/uL. For the same compound, the BASOPHIL [2] was 0%, the EOSINOPHIL [2] was 0.17% and the “ERYTHROCYTE COUNT” value [2] was 5.84 x10E6/uL. For the same compound, the HEMATOCRIT [2] was 36.88%, the HEMOGLOBIN [2] was 14.48 G/DL and the “LEUKOCYTE COUNT” value [2] was 13.6 x10E3/uL. The LYMPHOCYTE [2] was 92.17%, the “MEAN CORPUSCULAR HEMOGLOBIN” value [2] was 24.85 pg and the “MEAN CORPUSCULAR HEMOGLOBIN CONCENTRATION” value [2] was 39.3 G/DL. For the same compound, the “MEAN CORPUSCULAR VOLUME” value [2] was 63.23 fL, the MONOCYTE [2] was 0.83% and the NEUTROPHIL [2] was 6.83%. For the same compound, the “NUCLEATED RED BLOOD CELLS” value [2] was 0 /100WBC, the “PLATELET COUNT” value [2] was 1223.5 x10E3/uL and the “ALANINE AMINOTRANSFERASE” value [2] was 55.33 u/L. For the same compound, the ALBUMIN [2] was 4.08 G/DL, the “ALKALINE PHOSPHATASE” value [2] was 355.5 u/L and the “ASPARTATE AMINOTRANSFERASE” value [2] was 87.67 u/L. The “BLOOD UREA NITROGEN” value [2] was 15.33 mg/dL, the “CARBON DIOXIDE” value [2] was 33.83 mmol/L and the CHLORIDE [2] was 99.67 MEQ/L. The CHOLESTEROL [2] was 72.17 mg/dL, the “CREATINE PHOSPHOKINASE” value [2] was 268.33 u/L and the CREATININE [2] was 0.15 mg/dL. For the same compound, the GLUCOSE [2] was 152.5 mg/dL, the “LACTATE DEHYDROGENASE” value [2] was 212.67 u/L and the LIPASE [2] was 10.83 u/L. The PHOSPHORUS [2] was 11.65 mg/dL, the SODIUM [2] was 142.43 MEQ/L and the “TOTAL BILIRUBIN” value [2] was 0.23 mg/dL. For the same compound, the “TOTAL PROTEIN” value [2] was 6.07 G/DL, the “URIC ACID” value [2] was 1.7 mg/dL and the “ABSOLUTE BASOPHIL” value [3] was 0 CELLS/uL. The “ABSOLUTE EOSINOPHIL” value [3] was 157.33 CELLS/uL, the “ABSOLUTE LYMPHOCYTE” value [3] was 16865.67 CELLS/uL and the “ABSOLUTE MONOCYTE” value [3] was 329 CELLS/uL. For the same compound, the “ABSOLUTE SEGMENTED NEUTROPHIL” value [3] was 2381.33 CELLS/uL, the BASOPHIL [3] was 0% and the EOSINOPHIL [3] was 0.67%. The “ERYTHROCYTE COUNT” value [3] was 5.56 x10E6/uL, the HEMATOCRIT [3] was 35.37% and the HEMOGLOBIN [3] was 14.23 G/DL. For the same compound, the “LEUKOCYTE COUNT” value [3] was 19.73 x10E3/uL, the LYMPHOCYTE [3] was 85.67% and the “MEAN CORPUSCULAR HEMOGLOBIN” value [3] was 25.63 pg. The “MEAN CORPUSCULAR HEMOGLOBIN CONCENTRATION” value [3] was 40.27 G/DL, the “MEAN CORPUSCULAR VOLUME” value [3] was 63.63 fL and the MONOCYTE [3] was 1.67%. The NEUTROPHIL [3] was 12%, the “NUCLEATED RED BLOOD CELLS” value [3] was 0 /100WBC and the “PLATELET COUNT” value [3] was 1201.33 x10E3/uL. For the same compound, the “ALANINE AMINOTRANSFERASE” value [3] was 56 u/L, the ALBUMIN [3] was 3.87 G/DL and the “ALKALINE PHOSPHATASE” value [3] was 264.33 u/L. The “ASPARTATE AMINOTRANSFERASE” value [3] was 73.33 u/L, the “BLOOD UREA NITROGEN” value [3] was 11.67 mg/dL and the “CARBON DIOXIDE” value [3] was 31.67 mmol/L. For the same compound, the CHLORIDE [3] was 102.33 MEQ/L, the CHOLESTEROL [3] was 84.33 mg/dL and the “CREATINE PHOSPHOKINASE” value [3] was 223.33 u/L. For the same compound, the CREATININE [3] was 0.28 mg/dL, the GLUCOSE [3] was 140.67 mg/dL and the “LACTATE DEHYDROGENASE” value [3] was 124 u/L. It also gave an LIPASE [3] of 14.33 u/L, a PHOSPHORUS [3] of 11.63 mg/dL and an SODIUM [3] of 144.57 MEQ/L. The “TOTAL BILIRUBIN” value [3] was 0.1 mg/dL, the “TOTAL PROTEIN” value [3] was 5.7 G/DL and the “URIC ACID” value [3] was 1.23 mg/dL.
